Assay results as given in US9957247B2, “SecA inhibitors and methods of making and using thereof” (Georgia State University Research Foundation, Inc., priority 2012, dated 2018).
Values after ≈ are worked out from the molar mass of the structure shown. Like-named read-outs stand apart in the source and are kept apart here.

Experiments:
[1] = biological target: EcSecA N68 (Escherichia coli, UniProt P10408); test: biochemical; type: biochemical, E. coli
[2] = test system: S. aureus Mu50; test: Bacteriostatic effect, S. aureus Mu50; details: for MIC: Staphylococcus aureus; for Bacteriostatic MIC95, S. aureus Mu50: Table 2
[3] = biological target: T1, BsSecA (Bacillus subtilis, UniProt P28366); test: cell-based; parameters: species or system B. subtilis
T1 sequence (P28366 whole entry): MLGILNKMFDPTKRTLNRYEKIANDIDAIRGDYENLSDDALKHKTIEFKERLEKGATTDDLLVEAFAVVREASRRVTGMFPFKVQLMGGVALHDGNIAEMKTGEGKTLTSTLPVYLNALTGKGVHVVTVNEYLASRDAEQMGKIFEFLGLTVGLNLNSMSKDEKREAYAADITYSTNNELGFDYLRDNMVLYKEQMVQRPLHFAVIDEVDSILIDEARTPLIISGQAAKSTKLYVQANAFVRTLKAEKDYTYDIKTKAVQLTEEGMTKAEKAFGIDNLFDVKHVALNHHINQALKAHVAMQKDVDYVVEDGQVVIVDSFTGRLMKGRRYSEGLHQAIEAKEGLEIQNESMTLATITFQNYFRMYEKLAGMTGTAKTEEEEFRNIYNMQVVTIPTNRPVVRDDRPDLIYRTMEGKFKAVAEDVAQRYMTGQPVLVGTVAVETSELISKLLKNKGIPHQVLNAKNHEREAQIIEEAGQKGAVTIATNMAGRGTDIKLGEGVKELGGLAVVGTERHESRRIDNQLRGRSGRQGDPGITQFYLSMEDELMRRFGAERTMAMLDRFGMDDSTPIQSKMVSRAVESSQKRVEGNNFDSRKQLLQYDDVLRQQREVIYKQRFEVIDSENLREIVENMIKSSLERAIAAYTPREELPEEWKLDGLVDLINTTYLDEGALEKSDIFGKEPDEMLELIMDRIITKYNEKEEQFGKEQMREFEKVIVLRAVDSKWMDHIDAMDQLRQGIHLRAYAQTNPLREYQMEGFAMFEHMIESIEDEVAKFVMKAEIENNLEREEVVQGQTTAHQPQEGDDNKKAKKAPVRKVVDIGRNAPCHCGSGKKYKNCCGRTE

[4] = test system: B. subtilis 168; test: Bacteriostatic effect, liquid microdilution, B. subtilis 168; type: cell-based; details: Bacillus subtilis, Example 2
[5] = biological target: T2, EcSecA (Escherichia coli, UniProt P10408); test: cell-based
Target sequence in this assay (P10408 whole entry): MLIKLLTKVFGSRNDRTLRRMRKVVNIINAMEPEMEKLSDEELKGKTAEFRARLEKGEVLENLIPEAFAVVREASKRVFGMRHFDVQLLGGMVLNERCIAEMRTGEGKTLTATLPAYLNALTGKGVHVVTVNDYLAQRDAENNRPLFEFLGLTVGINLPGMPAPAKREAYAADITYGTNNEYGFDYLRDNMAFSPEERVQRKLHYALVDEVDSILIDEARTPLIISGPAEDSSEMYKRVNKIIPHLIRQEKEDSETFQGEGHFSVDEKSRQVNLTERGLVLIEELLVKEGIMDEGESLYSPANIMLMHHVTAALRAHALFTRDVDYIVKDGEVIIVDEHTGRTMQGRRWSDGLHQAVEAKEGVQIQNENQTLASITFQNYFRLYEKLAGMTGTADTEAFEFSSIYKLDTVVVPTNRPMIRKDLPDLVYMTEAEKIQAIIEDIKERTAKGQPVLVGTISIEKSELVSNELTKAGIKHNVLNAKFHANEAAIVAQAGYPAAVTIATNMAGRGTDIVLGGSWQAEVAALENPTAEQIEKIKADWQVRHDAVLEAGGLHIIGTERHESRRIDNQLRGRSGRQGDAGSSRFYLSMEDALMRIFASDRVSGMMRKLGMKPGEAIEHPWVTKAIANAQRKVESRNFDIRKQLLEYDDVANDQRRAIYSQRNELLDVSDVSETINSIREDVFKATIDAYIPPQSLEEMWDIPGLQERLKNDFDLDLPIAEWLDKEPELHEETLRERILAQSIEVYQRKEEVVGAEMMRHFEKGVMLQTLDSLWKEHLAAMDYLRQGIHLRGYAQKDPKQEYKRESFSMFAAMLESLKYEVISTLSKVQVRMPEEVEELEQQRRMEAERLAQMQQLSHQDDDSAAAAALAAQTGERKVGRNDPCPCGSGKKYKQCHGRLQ

[6] = test system: B. anthracis Sterne; test: microbe, parasite or virus in culture; type: cell-based; details: for MIC: Bacillus anthracis, read-out: Bacteriostatic MIC95, B. anthracis Sterne
[7] = biological target: T2, EcSecA; test: biochemical; details: IC50, Translocation ATPase, Table 1
Target sequence in this assay (P0AG99 whole entry): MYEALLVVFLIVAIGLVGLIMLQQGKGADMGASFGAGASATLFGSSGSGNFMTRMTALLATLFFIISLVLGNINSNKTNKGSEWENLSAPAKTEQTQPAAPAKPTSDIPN
Target sequence in this assay (P10408 whole entry): as the sequence (P10408 whole entry) above
Target sequence in this assay (P0AGA2 whole entry, further chain): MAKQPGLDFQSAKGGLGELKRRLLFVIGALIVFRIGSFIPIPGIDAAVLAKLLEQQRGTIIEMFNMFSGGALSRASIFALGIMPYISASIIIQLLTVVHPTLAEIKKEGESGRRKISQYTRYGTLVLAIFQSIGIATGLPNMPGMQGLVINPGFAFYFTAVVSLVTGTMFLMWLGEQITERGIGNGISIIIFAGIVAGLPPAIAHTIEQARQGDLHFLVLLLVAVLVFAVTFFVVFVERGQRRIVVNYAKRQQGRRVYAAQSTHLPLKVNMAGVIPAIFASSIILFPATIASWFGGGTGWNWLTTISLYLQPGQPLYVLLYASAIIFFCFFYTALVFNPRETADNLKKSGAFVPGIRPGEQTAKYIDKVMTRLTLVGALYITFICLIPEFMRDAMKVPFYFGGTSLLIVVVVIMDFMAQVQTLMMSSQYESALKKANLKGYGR
Target sequence in this assay (P0AG96 whole entry, further chain): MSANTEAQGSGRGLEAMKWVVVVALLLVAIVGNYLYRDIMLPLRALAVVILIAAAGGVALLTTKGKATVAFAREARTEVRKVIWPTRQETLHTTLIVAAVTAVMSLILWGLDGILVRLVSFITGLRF

[8] = biological target: MsSecA (Mycolicibacterium smegmatis, UniProt P71533); test: SecA-liposomes ion-channel activity in oocytes, MsSecA; type: cell-based; details: Table 1
[9] = biological target: BaSecA1 (Bacillus anthracis, UniProt Q81X26); test: cell-based; details: IC50, Ion Channel activity, BGaSecA 1
Sequence of BaSecA1 (Q81X26 whole entry, looked up): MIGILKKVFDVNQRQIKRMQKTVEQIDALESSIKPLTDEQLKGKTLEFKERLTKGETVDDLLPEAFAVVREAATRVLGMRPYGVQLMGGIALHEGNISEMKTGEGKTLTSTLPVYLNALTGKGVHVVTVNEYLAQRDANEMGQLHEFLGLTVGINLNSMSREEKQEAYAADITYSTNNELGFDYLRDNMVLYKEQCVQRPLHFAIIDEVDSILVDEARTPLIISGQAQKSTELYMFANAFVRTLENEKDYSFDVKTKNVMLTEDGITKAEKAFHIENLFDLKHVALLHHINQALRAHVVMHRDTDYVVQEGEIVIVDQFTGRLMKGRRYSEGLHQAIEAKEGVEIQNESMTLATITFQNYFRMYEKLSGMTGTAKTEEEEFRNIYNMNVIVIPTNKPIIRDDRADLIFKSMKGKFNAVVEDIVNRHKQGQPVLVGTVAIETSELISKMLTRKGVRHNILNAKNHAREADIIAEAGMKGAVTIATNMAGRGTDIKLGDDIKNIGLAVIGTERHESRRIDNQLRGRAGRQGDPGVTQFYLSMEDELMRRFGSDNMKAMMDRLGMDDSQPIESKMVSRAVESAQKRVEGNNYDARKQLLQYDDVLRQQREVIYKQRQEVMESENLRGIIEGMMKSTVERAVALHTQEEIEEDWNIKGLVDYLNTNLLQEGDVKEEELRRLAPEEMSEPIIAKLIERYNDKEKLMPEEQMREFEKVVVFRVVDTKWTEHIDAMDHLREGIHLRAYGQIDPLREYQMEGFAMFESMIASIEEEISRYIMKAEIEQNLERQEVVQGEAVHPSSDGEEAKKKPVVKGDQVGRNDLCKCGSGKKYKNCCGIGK

[10] = biological target: T2, EcSecA; test: biochemical; parameters: species or system E. coli; details: IC50, Intrinsic ATPase, Table 1, full-length EcSecA
Target sequence in this assay (P10408 whole entry): as the sequence (P10408 whole entry) above

[11] = biological target: SpSecA (Streptococcus pyogenes, UniProt Q99Y96); type: cell-based; details: read-out: IC50, Ion Channel activity, SpSecA
Sequence of SpSecA (Q99Y96 whole entry): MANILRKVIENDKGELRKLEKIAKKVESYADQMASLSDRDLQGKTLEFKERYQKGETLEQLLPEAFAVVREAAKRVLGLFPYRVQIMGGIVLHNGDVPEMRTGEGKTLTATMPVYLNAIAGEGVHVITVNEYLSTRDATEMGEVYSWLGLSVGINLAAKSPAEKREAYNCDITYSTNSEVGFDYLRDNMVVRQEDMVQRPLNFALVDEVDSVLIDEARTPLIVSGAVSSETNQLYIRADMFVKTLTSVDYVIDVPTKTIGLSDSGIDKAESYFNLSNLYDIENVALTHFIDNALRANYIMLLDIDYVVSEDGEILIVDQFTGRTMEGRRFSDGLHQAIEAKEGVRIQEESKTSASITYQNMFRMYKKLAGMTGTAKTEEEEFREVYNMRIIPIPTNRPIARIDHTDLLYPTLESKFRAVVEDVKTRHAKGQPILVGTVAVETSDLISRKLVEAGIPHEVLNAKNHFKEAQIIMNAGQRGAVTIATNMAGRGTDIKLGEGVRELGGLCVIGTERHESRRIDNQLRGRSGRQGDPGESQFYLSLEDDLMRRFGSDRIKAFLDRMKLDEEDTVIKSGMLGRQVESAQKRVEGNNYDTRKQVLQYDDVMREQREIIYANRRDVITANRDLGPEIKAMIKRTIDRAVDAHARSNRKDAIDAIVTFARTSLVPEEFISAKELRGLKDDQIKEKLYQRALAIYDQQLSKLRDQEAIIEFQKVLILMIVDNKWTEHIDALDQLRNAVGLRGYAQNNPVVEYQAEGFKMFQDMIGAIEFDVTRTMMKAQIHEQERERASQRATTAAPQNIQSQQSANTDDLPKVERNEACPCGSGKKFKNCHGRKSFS

[12] = test system: S. aureus deletion strains (NorA−, MepA−) and strains (NorA++, MepA++) with over-expressed efflux pumps; test: Antimicrobial effect with deletion or over expression of efflux pumps in S. aureus; details: wild type, NorA−/MepA− and NorA++/MepA++ strains
[13] = biological target: T3, SaSecA2 (Staphylococcus aureus, UniProt Q2FUW6); test: ATPase activity assay (malachite green), SaSecA2; details: IC50, Intrinsic ATPase, SaSecA2, Table 1
T3 sequence (Q2FUW6 1-796): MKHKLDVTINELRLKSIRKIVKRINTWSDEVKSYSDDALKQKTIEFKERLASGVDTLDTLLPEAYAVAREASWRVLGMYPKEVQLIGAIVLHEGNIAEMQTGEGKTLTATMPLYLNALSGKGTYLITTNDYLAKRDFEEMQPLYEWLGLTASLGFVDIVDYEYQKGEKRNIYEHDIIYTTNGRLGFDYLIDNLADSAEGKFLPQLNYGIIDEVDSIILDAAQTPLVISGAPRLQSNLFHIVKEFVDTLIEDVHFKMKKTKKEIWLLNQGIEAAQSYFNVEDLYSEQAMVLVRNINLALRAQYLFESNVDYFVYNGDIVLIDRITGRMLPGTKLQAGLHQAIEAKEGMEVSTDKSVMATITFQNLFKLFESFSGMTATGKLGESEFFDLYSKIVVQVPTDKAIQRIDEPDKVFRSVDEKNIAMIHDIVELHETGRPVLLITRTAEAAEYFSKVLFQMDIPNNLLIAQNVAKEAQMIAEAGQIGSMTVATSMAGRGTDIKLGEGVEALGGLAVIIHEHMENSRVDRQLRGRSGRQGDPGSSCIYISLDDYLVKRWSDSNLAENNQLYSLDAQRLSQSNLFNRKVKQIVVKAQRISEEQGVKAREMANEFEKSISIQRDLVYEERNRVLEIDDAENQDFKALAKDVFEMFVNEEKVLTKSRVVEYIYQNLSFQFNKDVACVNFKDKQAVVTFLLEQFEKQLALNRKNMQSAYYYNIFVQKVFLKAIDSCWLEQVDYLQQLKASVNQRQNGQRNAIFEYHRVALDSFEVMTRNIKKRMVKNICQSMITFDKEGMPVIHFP

[14] = biological target: MtbSecA (Mycobacterium tuberculosis, UniProt P9WGP5); test: cell-based
[15] = biological target: T1, BsSecA; test: biochemical; type: biochemical, B. subtilis
[16] = biological target: T2, EcSecA; test: biochemical; details: IC50, Protein Translocation, Table 1
Target sequence in this assay (P0AG99 whole entry): as the sequence (P0AG99 whole entry) above
Target sequence in this assay (P10408 whole entry): as the sequence (P10408 whole entry) above
Target sequence in this assay (P0AGA2 whole entry, further chain): as the sequence (P0AGA2 whole entry, further chain) above
Target sequence in this assay (P0AG96 whole entry, further chain): as the sequence (P0AG96 whole entry, further chain) above

[17] = biological target: BsSecA2; details: read-out: IC50, Intrinsic ATPase, BsSecA2; Table 1
[18] = biological target: T4, SaSecA1 (Staphylococcus aureus, UniProt O06446); test: cell-based
T4 sequence (O06446 1-843): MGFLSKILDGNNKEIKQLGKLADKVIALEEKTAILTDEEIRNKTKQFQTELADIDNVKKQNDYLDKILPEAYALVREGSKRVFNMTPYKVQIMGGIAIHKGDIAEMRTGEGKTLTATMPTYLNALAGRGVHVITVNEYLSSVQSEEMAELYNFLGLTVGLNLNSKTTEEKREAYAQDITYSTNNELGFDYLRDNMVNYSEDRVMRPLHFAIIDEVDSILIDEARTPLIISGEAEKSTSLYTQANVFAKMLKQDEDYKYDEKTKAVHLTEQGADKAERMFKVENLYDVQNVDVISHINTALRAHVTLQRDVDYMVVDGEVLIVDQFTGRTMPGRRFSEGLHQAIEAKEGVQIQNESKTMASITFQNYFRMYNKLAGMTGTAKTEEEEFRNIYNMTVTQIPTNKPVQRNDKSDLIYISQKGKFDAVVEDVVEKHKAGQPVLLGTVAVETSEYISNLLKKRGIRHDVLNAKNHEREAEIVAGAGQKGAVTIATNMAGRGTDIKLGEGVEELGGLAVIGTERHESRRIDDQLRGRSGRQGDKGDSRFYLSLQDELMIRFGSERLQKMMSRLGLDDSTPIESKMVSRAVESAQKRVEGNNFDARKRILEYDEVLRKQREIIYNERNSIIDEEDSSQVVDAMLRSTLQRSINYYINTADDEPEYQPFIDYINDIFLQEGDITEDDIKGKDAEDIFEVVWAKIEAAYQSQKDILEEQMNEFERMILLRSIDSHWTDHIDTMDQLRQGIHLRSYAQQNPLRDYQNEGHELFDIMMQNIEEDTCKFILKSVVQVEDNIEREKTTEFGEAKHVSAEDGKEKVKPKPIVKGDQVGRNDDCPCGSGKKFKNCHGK

[19] = test system: S. pyogenes, MGAS5005; test: MIC95, S. pyogenes MGAS5005; type: cell-based; details: Streptococcus pyogenes, MGAS5005; read-out: MIC95, S. pyogenes MGAS5005
[20] = MU50, read-out: Bacteriostatic effect MIC, S. aureus Mu50, Table 10 and Example 4
[21] = MU50, read-out: MIC95 against drug resistant S. aureus Mu50
[22] = Ion channel, IC50, BsSecA, Table 5
[23] = MU50, read-out: Bacteriostatic MIC95, S. aureus Mu50, Table 2
[24] = Ion channel, IC50, EcSecA, Table 5

Sequence of EcSecA N68 (P10408 1-610): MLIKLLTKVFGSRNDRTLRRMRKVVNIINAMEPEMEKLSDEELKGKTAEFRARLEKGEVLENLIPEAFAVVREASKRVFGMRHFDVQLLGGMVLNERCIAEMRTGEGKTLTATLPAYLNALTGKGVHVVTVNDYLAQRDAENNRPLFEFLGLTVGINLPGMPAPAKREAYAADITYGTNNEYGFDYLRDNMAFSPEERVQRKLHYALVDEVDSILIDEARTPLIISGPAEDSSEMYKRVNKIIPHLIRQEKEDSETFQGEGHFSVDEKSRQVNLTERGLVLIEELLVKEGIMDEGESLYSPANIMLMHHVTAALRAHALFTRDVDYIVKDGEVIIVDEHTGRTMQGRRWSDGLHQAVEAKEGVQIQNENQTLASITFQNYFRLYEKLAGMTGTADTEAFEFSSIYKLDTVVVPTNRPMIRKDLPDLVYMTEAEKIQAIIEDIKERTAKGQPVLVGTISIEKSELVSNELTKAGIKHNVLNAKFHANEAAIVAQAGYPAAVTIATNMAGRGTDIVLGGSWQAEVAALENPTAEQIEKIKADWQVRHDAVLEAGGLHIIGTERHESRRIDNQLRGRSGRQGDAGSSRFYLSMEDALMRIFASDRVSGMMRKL

CN(C)c1ccc2c(c1)Oc1cc(N(C)C)ccc1C2C1CCCC1 [Compound 30, 9-Cyclopentyl-N3,N3,N6,N6-tetramethyl-9H-xanthene-3,6-diamine]
Inhibition of EcSecA N68 ATPase, initial screening ([1]; 100 μM, FIG. 1): weak or no activity

NC[C@H]1O[C@H](O[C@H]2[C@H](O)[C@@H](O[C@H]3O[C@H](CO)[C@@H](O)[C@H](N)[C@H]3O)[C@H](N)C[C@@H]2N)[C@H](O)[C@@H](O)[C@@H]1O [Kanamycin]
MIC [2, 20]: 1000 µg/mL
MIC [2, 21]: > 100 µM

Oc1cc2c(cc1I)C(C1CCCC1)c1cc(I)c(O)c(I)c1O2 (stereo not drawn) [Compound 23c]
IC50 [3, 22]: 2800 nM
MIC [4]: 6 µM (≈ 3.96 µg/mL)
IC50 [5]: 2200 nM

CN[C@H](CC(C)C)C(=O)N[C@H]1C(=O)N[C@@H](CC(N)=O)C(=O)N[C@H]2C(=O)N[C@H]3C(=O)N[C@H](C(=O)N[C@H](C(=O)O)c4cc(O)cc(O)c4-c4cc3ccc4O)[C@H](O)c3ccc(c(Cl)c3)Oc3cc2cc(c3O[C@@H]2O[C@H](CO)[C@@H](O)[C@H](O)[C@H]2O[C@H]2C[C@](C)(N)[C@H](O)[C@H](C)O2)Oc2ccc(cc2Cl)[C@H]1O [Vancomycin]
MIC [6]: 2.5 µg/mL (≈ 1.73 µM)
MIC ([2]; MU50, read-out: Bacteriostatic MIC95, S. aureus Mu50): 5 µg/mL
MIC ([2]; MU50, read-out: Bacteriostatic effect MIC, S. aureus Mu50): 7.8 µg/mL
MIC [2, 21]: 5 µM

CC(C)C1c2ccc(O)cc2Oc2cc(O)ccc21 [Compound 22b, 9-Isopropyl-9H-xanthene-3,6-diol]
IC50 [3, 22]: 4900 nM
MIC [4]: 75 µM (≈ 19.2 µg/mL)
IC50 [5]: 4300 nM

O=C(O)c1ccccc1-c1c2ccc(=O)c(I)c-2oc2c(I)c(O)ccc12 [DI, Diiodofluorescein, reference compound]
IC50 ([1]; read-out: IC50, EcN68 SecA ATPase (unregulated ATPase)): 30000 nM

CSc1nc(Sc2nnc(-c3cc(C(F)(F)F)cc(C(F)(F)F)c3)[nH]2)cc(Sc2nnc(-c3cc(C(F)(F)F)cc(C(F)(F)F)c3)[nH]2)n1 [SCA-21]
IC50 ([3]; IC50, Ion Channel activity, BsSecA, Table 1): 2600 nM
IC50 [7]: 20000 nM
IC50 [8]: 2000 nM
IC50 [9]: 1500 nM
IC50 [10]: 32000 nM
MIC [6]: 3 µg/mL (≈ 4.01 µM)
IC50 [11]: 1000 nM
IC50 [1]: 18000 nM
Bactericidal (killing) effect with over expression of efflux pumps [12]: not attenuated
MIC (bacteriostatic) with over expression of efflux pumps [12]: did not increase
IC50 [13]: 43000 nM
IC50 [14]: 2000 nM
IC50 [15]: > 100000 nM
IC50 [16]: 21000 nM
IC50 [17]: 45000 nM
IC50 [5]: 2400 nM
MIC [2, 23]: 1.5 µg/mL
MIC [2, 21]: 1.5 µM
IC50 [18]: 1600 nM
MIC [19]: 0.39 µM (≈ 0.292 µg/mL)

CC(C)C1c2cc(I)c(O)c(I)c2Oc2c1cc(I)c(O)c2I [Compound 23d, 2,4,5,7-Tetraiodo-9-isopropyl-9H-xanthene-3,6-diol]
IC50 [3, 22]: 2500 nM
MIC [4]: 6 µM (≈ 4.56 µg/mL)
IC50 [5]: 2800 nM

Oc1c(I)cc2c(c1I)Oc1c(cc(I)c(O)c1I)C2C1CCCC1 [Compound 23b, 9-Cyclopentyl-2,4,5,7-tetraiodo-9H-xanthene-3,6-diol]
IC50 [3, 22]: 3800 nM
MIC [4]: 6 µM (≈ 4.72 µg/mL)
IC50 [5]: 2500 nM

Polymyxin B
Bacteriostatic MIC95, B. anthracis Sterne ([6]; Table 2): 10 µg/mL
Bacteriostatic MIC95, S. aureus Mu50 [2]: 15 µg/mL
Bacteriostatic effect MIC, S. aureus Mu50 ([2]; Table 10 and text of Example 4): 31.3 µg/mL

CN(C)[C@@H]1C(O)=C(C(N)=O)C(=O)[C@@]2(O)C(O)=C3C(=O)c4c(O)cccc4[C@@](C)(O)[C@H]3C[C@@H]12 [Tetracycline]
MIC [6]: 0.1 µg/mL (≈ 0.225 µM)
MIC [2, 23]: 200 µg/mL
MIC [2, 20]: 62.5 µg/mL
MIC [2, 21]: > 100 µM

CCn1cc(C(=O)O)c(=O)c2cc(F)c(N3CCNCC3)cc21 [Norfloxacin]
MIC [2, 20]: 250 µg/mL

CO[C@H]1/C=C/O[C@@]2(C)Oc3c(C)c(O)c4c(O)c(c(/C=N/N5CCN(C)CC5)c(O)c4c3C2=O)NC(=O)/C(C)=C\C=C\[C@H](C)[C@H](O)[C@@H](C)[C@@H](O)[C@@H](C)[C@H](OC(C)=O)[C@@H]1C [Rifampicin]
MIC [2, 20]: > 1000 µg/mL

CC[C@H]1OC(=O)[C@H](C)[C@@H](O[C@H]2C[C@@](C)(OC)[C@@H](O)[C@H](C)O2)[C@H](C)[C@@H](O[C@@H]2O[C@H](C)C[C@H](N(C)C)[C@H]2O)[C@](C)(O)C[C@@H](C)C(=O)[C@H](C)[C@@H](O)[C@]1(C)O [Erythromycin]
MIC [6]: 0.3 µg/mL (≈ 0.409 µM)
MIC [2, 23]: > 500 µg/mL
MIC [2, 20]: > 1250 µg/mL
MIC [2, 21]: > 100 µM

O=C(N[C@H](CO)[C@H](O)c1ccc([N+](=O)[O-])cc1)C(Cl)Cl [Chloramphenic]
Bacteriostatic MIC95, B. anthracis Sterne [6]: 10 µg/mL
Bacteriostatic MIC95, S. aureus Mu50 [2]: >40 µg/mL

CCCCCCC1c2ccc(O)cc2Oc2cc(O)ccc21 [Compound 22c, 9-Hexyl-9H-xanthene-3,6-diol]
IC50 [3, 22]: 2500 nM
MIC [4]: 13 µM (≈ 3.88 µg/mL)
IC50 [5, 24]: 2300 nM

Gentamycin
Bacteriostatic MIC95, B. anthracis Sterne ([6]; Table 2): 5 µg/mL
Bacteriostatic MIC95, S. aureus Mu50 [2]: >500 µg/mL

Oc1c(Br)cc2c(c1Br)Oc1c(cc(Br)c(O)c1Br)C2C1CCCC1 [Compound 23a, 2,4,5,7-Tetrabromo-9-cyclopentyl-9H-xanthene-3,6-diol]
IC50 [3, 22]: 2400 nM
MIC [4]: 22 µM (≈ 13.2 µg/mL)
IC50 [5]: 2300 nM

CC1(C)S[C@@H]2[C@H](NC(=O)[C@H](N)c3ccccc3)C(=O)N2[C@H]1C(=O)O [Ampicillin]
MIC [6]: > 20 µg/mL
MIC [2, 23]: 7.8 µg/mL
MIC [2, 20]: 1000 µg/mL

Oc1ccc2c(c1)Oc1cc(O)ccc1C2C1CCCC1 [Compound 22a, 9-Cyclopentyl-9H-xanthene-3,6-diol]
IC50 [3, 22]: 3000 nM
MIC [4]: 25 µM (≈ 7.06 µg/mL)
IC50 [5, 24]: 3400 nM
